We go through two compounds from patent US20110166078A1, “OLIGOSACCHARIDE COMPOUNDS FOR USE IN MOBILISING STEM CELLS” (ENDOTIS PHARMA, priority 2008, published 2011).

In assay [1] the test system is PDGF-β-induced NHDF proliferation. Briefly: PDGF-β-induced NHDF proliferation assay. To be noted: PDGF-β 10 ng/ml; FIGS. 8-12. The assay is classed as cell-based, human. How it is done: (§1) The activities of the compounds of the present invention were tested using a proliferation assay, such as the one described by N. Ali et al., J Pharmacol Sci, 2005, 98, 130-141. A defined number of cells is seeded in each well of a culture plate. In order to stimulate cell proliferation, a growth factor is added in some wells, while others remain unstimulated (basal proliferation conditions). To monitor the effects of substances of interest (oligosaccharides compounds according to the present invention) on basal and growth factor-induced cell proliferation, substances of interest are added at different concentrations (i.e. 0.1, 0.3, 1, 3, 10 or 30 μM) in presence or absence of the growth factor, respectively. After an incubation period of 24 hours, the total number of cells is estimated in all samples (generally through an indirect method, such as incorporation of radioactivity into the newly synthesised DNA or colorimetric assays based on cellular enzyme activities or metabolite production). The total number of cells for the control sample in which no substance of interest nor growth factor have been added is set to 1. The total number of cells in all the other samples is compared to this value in order to obtain the relative proliferation index.
Typically, cells are seeded in 48 or 96-well plates. After 2 h (i.e. the time required for cells to adhere to the support) the normal culture media is replaced by a minimal essential culture media in which cells are grown for 24 h (starvation period). This step is used to reduce cell growth (cell metabolism is slowed down in order to better visualise the growth factor stimulation effect) before adding an angiogenic protein, such as a growth factor i.e. FGF-2 or PDGF-β. No growth factor is added in basal proliferation conditions (independently of the presence or absence of the oligosaccharide of the present invention). To evaluate the inhibition of the oligosaccharide compounds according to the present invention on cell proliferation, the angiogenic protein (growth factor) is added at a fixed concentration (from 5 ng/ml to 10 ng/ml) with increasing amounts of oligosaccharide compounds (0.1, 0.3, 1, 3, 10 or 30 μM), which allows the IC50 value to be estimated (i.e. the oligosaccharide concentration at which the stimulatory effect of the growth factor is inhibited by 50%).
(§2) Following addition of the angiogenic protein (growth factor) over a 24 h stimulation period, a commercial reagent containing a substrate for a cellular enzyme is added and incubated for couple of hours. The degradation of the substrate by the enzyme leads to the production of a coloured product which is titrated by absorbance measurement. […]

Assay [2] relates to FGF-2-induced NHDF (Normal Human Dermal Fibroblast) cell proliferation. Description: FGF-2-induced NHDF proliferation assay. The assay is classed as cell-based. To be noted: compound 0.1 to 30 μM. Here is the method:
as §1
Typically, cells are seeded in 48 or 96-well plates. After 2 h (i.e. the time required for cells to adhere to the support) the normal culture media is replaced by a minimal essential culture media in which cells are grown for 24 h (starvation period). This step is used to reduce cell growth (cell metabolism is slowed down in order to better visualise the growth factor stimulation effect) before adding an angiogenic protein, such as a growth factor i.e. FGF-2 or PDGF-β. No growth factor is added in basal proliferation conditions (independently of the presence or absence of the oligosaccharide of the present invention). […]
as §2
In the following experiments the effects of compounds 240 and 241 (concentrations from 0.1 to 30 μM) were evaluated on FGF-2-induced NHDF (Normal Human Dermal Fibroblast) cell proliferation. […]

Regarding `C#CCCCOC1OC(COS(=O)(=O)[O-])C(OC2OC(C(=O)[O-])C(OC3OC(COS(=O)(=O)[O-])C(OC4OC(C(=O)[O-])C(OCc5ccccc5)C(OCc5ccccc5)C4OS(=O)(=O)[O-])C(OCc4ccccc4)C3NS(=O)(=O)[O-])C(OCc3ccccc3)C2OS(=O)(=O)[O-])C(OCc2ccccc2)C1NS(=O)(=O)[O-].[Na+].[Na+].[Na+].[Na+].[Na+].[Na+].[Na+].[Na+]` (stereo not shown) [Compound 237], in assay [1], the “inhibition of PDGF-β-induced NHDF proliferation” value was “inhibit PDGF-β proliferation (starting in the micromolar range)”.
On to `C#CCCCOC1OC(COS(=O)(=O)[O-])C(OC2OC(C(=O)[O-])C(OC3OC(COS(=O)(=O)[O-])C(OC4OC(C(=O)[O-])C(OC5OC(COS(=O)(=O)[O-])C(OC6OC(C(=O)[O-])C(OC7OC(COS(=O)(=O)[O-])C(OC8OC(C(=O)[O-])C(OC9OC(COS(=O)(=O)[O-])C(OC%10OC(C(=O)[O-])C(OCc%11ccccc%11)C(OCc%11ccccc%11)C%10OS(=O)(=O)[O-])C(OCc%10ccccc%10)C9NS(=O)(=O)[O-])C(OCc9ccccc9)C8OS(=O)(=O)[O-])C(OCc8ccccc8)C7NS(=O)(=O)[O-])C(OCc7ccccc7)C6OS(=O)(=O)[O-])C(OCc6ccccc6)C5NS(=O)(=O)[O-])C(OCc5ccccc5)C4OS(=O)(=O)[O-])C(OCc4ccccc4)C3NS(=O)(=O)[O-])C(OCc3ccccc3)C2OS(=O)(=O)[O-])C(OCc2ccccc2)C1NS(=O)(=O)[O-].[Na+].[Na+].[Na+].[Na+].[Na+].[Na+].[Na+].[Na+].[Na+].[Na+].[Na+].[Na+].[Na+].[Na+].[Na+].[Na+].[Na+].[Na+].[Na+].[Na+]` (stereo not shown) [Compound 241], for which the “inhibition of FGF-2-induced fibroblast proliferation” value in assay [2] (FGF-2 5 ng/ml, FIGS. 6-7) is “inhibit FGF-2-induced fibroblast proliferation (starting in the micromolar range)”. The “basal NHDF proliferation” value in assay [2] (control conditions, no growth factor) is recorded as “did not seem to be affected”. In addition, the “inhibition of PDGF-β-induced NHDF proliferation” value in assay [1] is “inhibit PDGF-β proliferation (starting in the micromolar range)”.
